In patent US20260262643A1, “HERBICIDAL BENZOXAZINES” (FMC CORPORATION, priority 2022, published 2026):

Experiments:
foxtail, giant [1] = assay: Test A preemergence; type: in vivo, Setaria faberi
Outline: (§1)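 Loam/sand soil; pre-em directed soil spray at planting, post-em spray at 1–2 leaf (2–10 cm). Compound in non-phytotoxic solvent + surfactant. Greenhouse 10 d; visual injury vs untreated, 0 = no effect, 100 = complete control.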

rice = assay: Test B flooded paddy test; type: in vivo, Oryza sativa; details: 250 g ai/ha, Flood, 13 days, 0 to 100 scale (0 no effect, 100 complete control)
Outline: (§2)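 Visual scores from 0 (no effect) to 100 (complete kill) were assigned 13 days after treatment by comparison with controls. Seedlings had been treated at two leaves by adding compound to floodwater standing 3 cm deep, kept at that level in the greenhouse.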

galium = assay: Test A postemergence; type: in vivo, Galium aparine
Outline: as §1

sedge, umbrella = assay: Test B flooded paddy test; type: in vivo, Cyperus difformis; details: 250 g ai/ha, Flood, 13 days, 0 to 100 scale (0 no effect, 100 complete control)
Outline: as §2

soybean [2] = assay: Test A postemergence; type: in vivo, Glycine max
Outline: as §1

blackgrass [3] = assay: Test A preemergence; type: in vivo, Alopecurus myosuroides
Outline: as §1

pigweed, palmer [4] = assay: Test A preemergence; type: in vivo, Amaranthus palmeri
Outline: as §1

barnyardgrass = assay: Test B flooded paddy test; type: in vivo, Echinochloa crus-galli; details: 250 g ai/ha, Flood, 13 days, 0 to 100 scale (0 no effect, 100 complete control)
Outline: as §2

horseweed = assay: Test A postemergence; type: in vivo, Erigeron canadensis
Outline: as §1

ragweed [5] = assay: Test A preemergence; type: in vivo, Ambrosia artemisiifolia
Outline: as §1

kochia [6] = assay: Test A postemergence; type: in vivo, Bassia scoparia
Outline: as §1

foxtail, giant [7] = assay: Test A postemergence; type: in vivo, Setaria faberi
Outline: as §1

wheat [8] = assay: Test A postemergence; type: in vivo, Triticum aestivum
Outline: as §1

ryegrass, Italian [9] = assay: Test A preemergence; type: in vivo, Lolium multiflorum
Outline: as §1

ducksalad = assay: Test B flooded paddy test; type: in vivo, Heteranthera limosa; details: 250 g ai/ha, Flood, 13 days, 0 to 100 scale (0 no effect, 100 complete control)
Outline: as §2

soybean [10] = assay: Test A preemergence; type: in vivo, Glycine max
Outline: as §1

goosegrass [11] = assay: Test A postemergence; type: in vivo, Eleusine indica
Outline: as §1

goosegrass [12] = assay: Test A preemergence; type: in vivo, Eleusine indica
Outline: as §1

wheat [13] = assay: Test A preemergence; type: in vivo, Triticum aestivum
Outline: as §1

pigweed, palmer [14] = assay: Test A postemergence; type: in vivo, Amaranthus palmeri
Outline: as §1

oat, wild [15] = assay: Test A preemergence; type: in vivo, Avena fatua
Outline: as §1

ryegrass, Italian [16] = assay: Test A postemergence; type: in vivo, Lolium multiflorum
Outline: as §1

blackgrass [17] = assay: Test A postemergence; type: in vivo, Alopecurus myosuroides
Outline: as §1

ragweed [18] = assay: Test A postemergence; type: in vivo, Ambrosia artemisiifolia
Outline: as §1

kochia [19] = assay: Test A preemergence; type: in vivo, Bassia scoparia
Outline: as §1

corn [20] = assay: Test A preemergence; type: in vivo, Zea mays
Outline: as §1

oat, wild [21] = assay: Test A postemergence; type: in vivo, Avena fatua
Outline: as §1

corn [22] = assay: Test A postemergence; type: in vivo, Zea mays
Outline: as §1

[23] = 125 g ai/ha, visual injury after 10 days, 0 to 100 scale, 0 is no effect, 100 is complete control
[24] = 500 g ai/ha, 0 to 100 scale (0 no effect, 100 complete control), 10 days
[25] = 125 g ai/ha, postemergence, 10 days, visual injury, 0 to 100 scale (0 no effect, 100 complete control)
[26] = 500 g ai/ha, Postemergence, 0 to 100 scale

Cc1cccc2c1O[C@@H](C)CN2C(=O)c1cccc(-n2cnc(C(C)C)n2)c1 [Compound 55]
Plant response rating, Foxtail, Giant (foxtail, giant [1]; [23]): 100 | Plant response rating, Foxtail, Giant (foxtail, giant [1]; [24]): 100 | Plant response rating, Rice (rice): 0 | Plant response rating, Galium (galium; [25]): 100 | Plant response rating, Galium (galium; [26]): 100 | Plant response rating, Sedge, Umbrella (sedge, umbrella): 95 | Plant response rating, Soybean (soybean [2]; [25]): 100 | Plant response rating, Soybean (soybean [2]; [26]): 100 | Plant response rating, Blackgrass (blackgrass [3]; [23]): 80 | Plant response rating, Blackgrass (blackgrass [3]; [24]): 90 | Plant response rating, Pigweed, Palmer (pigweed, palmer [4]; [23]): 80 | Plant response rating, Pigweed, Palmer (pigweed, palmer [4]; [24]): 90 | Plant response rating, Barnyardgrass (barnyardgrass): 30 | Plant response rating, Horseweed (horseweed; [25]): 0 | Plant response rating, Horseweed (horseweed; [26]): 30 | Plant response rating, Ragweed (ragweed [5]; [23]): 20 | Plant response rating, Ragweed (ragweed [5]; [24]): 40 | Plant response rating, Kochia (kochia [6]; [25]): 80 | Plant response rating, Kochia (kochia [6]; [26]): 90 | Plant response rating, Foxtail, Giant (foxtail, giant [7]; [25]): 100 | Plant response rating, Foxtail, Giant (foxtail, giant [7]; [26]): 100 | Plant response rating, Wheat (wheat [8]; [25]): 40 | Plant response rating, Wheat (wheat [8]; [26]): 60 | Plant response rating, Ryegrass, Italian (ryegrass, Italian [9]; [23]): 80 | Plant response rating, Ryegrass, Italian (ryegrass, Italian [9]; [24]): 100 | Plant response rating, Ducksalad (ducksalad): 75 | Plant response rating, Soybean (soybean [10]; [23]): 30 | Plant response rating, Soybean (soybean [10]; [24]): 100 | Plant response rating, Goosegrass (goosegrass [11]; [25]): 50 | Plant response rating, Goosegrass (goosegrass [11]; [26]): 90 | Plant response rating, Goosegrass (goosegrass [12]; [23]): 100 | Plant response rating, Goosegrass (goosegrass [12]; [24]): 100 | Plant response rating, Wheat (wheat [13]; [23]): 40 | Plant response rating, Wheat (wheat [13]; [24]): 60 | Plant response rating, Pigweed, Palmer (pigweed, palmer [14]; [25]): 40 | Plant response rating, Pigweed, Palmer (pigweed, palmer [14]; [26]): 60 | Plant response rating, Oat, Wild (oat, wild [15]; [23]): 70 | Plant response rating, Oat, Wild (oat, wild [15]; [24]): 90 | Plant response rating, Ryegrass, Italian (ryegrass, Italian [16]; [25]): 50 | Plant response rating, Ryegrass, Italian (ryegrass, Italian [16]; [26]): 100 | Plant response rating, Blackgrass (blackgrass [17]; [25]): 60 | Plant response rating, Blackgrass (blackgrass [17]; [26]): 80 | Plant response rating, Ragweed (ragweed [18]; [25]): 50 | Plant response rating, Ragweed (ragweed [18]; [26]): 70 | Plant response rating, Kochia (kochia [19]; [23]): 90 | Plant response rating, Kochia (kochia [19]; [24]): 100 | Plant response rating, Corn (corn [20]; [23]): 0 | Plant response rating, Corn (corn [20]; [24]): 30 | Plant response rating, Oat, Wild (oat, wild [21]; [25]): 40 | Plant response rating, Oat, Wild (oat, wild [21]; [26]): 80 | Plant response rating, Corn (corn [22]; [25]): 40 | Plant response rating, Corn (corn [22]; [26]): 80

Cc1cccc2c1O[C@@H](C)CN2C(=O)c1cccc(-n2ncnc2C(C)C)c1 [Compound 56]
Plant response rating, Foxtail, Giant (foxtail, giant [1]; [23]): 0 | Plant response rating, Foxtail, Giant (foxtail, giant [1]; [24]): 0 | Plant response rating, Rice (rice): 0 | Plant response rating, Galium (galium; [25]): 0 | Plant response rating, Galium (galium; [26]): 0 | Plant response rating, Sedge, Umbrella (sedge, umbrella): 0 | Plant response rating, Soybean (soybean [2]; [25]): 0 | Plant response rating, Soybean (soybean [2]; [26]): 10 | Plant response rating, Blackgrass (blackgrass [3]; [23]): 0 | Plant response rating, Blackgrass (blackgrass [3]; [24]): 0 | Plant response rating, Pigweed, Palmer (pigweed, palmer [4]; [23]): 0 | Plant response rating, Pigweed, Palmer (pigweed, palmer [4]; [24]): 0 | Plant response rating, Barnyardgrass (barnyardgrass): 0 | Plant response rating, Horseweed (horseweed; [25]): 0 | Plant response rating, Horseweed (horseweed; [26]): 0 | Plant response rating, Ragweed (ragweed [5]; [23]): 0 | Plant response rating, Ragweed (ragweed [5]; [24]): 0 | Plant response rating, Kochia (kochia [6]; [25]): 0 | Plant response rating, Kochia (kochia [6]; [26]): 0 | Plant response rating, Foxtail, Giant (foxtail, giant [7]; [25]): 0 | Plant response rating, Foxtail, Giant (foxtail, giant [7]; [26]): 0 | Plant response rating, Wheat (wheat [8]; [25]): 0 | Plant response rating, Wheat (wheat [8]; [26]): 0 | Plant response rating, Ryegrass, Italian (ryegrass, Italian [9]; [23]): 0 | Plant response rating, Ryegrass, Italian (ryegrass, Italian [9]; [24]): 0 | Plant response rating, Ducksalad (ducksalad): 0 | Plant response rating, Soybean (soybean [10]; [23]): 0 | Plant response rating, Soybean (soybean [10]; [24]): 0 | Plant response rating, Goosegrass (goosegrass [11]; [25]): 0 | Plant response rating, Goosegrass (goosegrass [11]; [26]): 0 | Plant response rating, Goosegrass (goosegrass [12]; [23]): 0 | Plant response rating, Goosegrass (goosegrass [12]; [24]): 0 | Plant response rating, Wheat (wheat [13]; [23]): 0 | Plant response rating, Wheat (wheat [13]; [24]): 0 | Plant response rating, Pigweed, Palmer (pigweed, palmer [14]; [25]): 0 | Plant response rating, Pigweed, Palmer (pigweed, palmer [14]; [26]): 0 | Plant response rating, Oat, Wild (oat, wild [15]; [23]): 0 | Plant response rating, Oat, Wild (oat, wild [15]; [24]): 0 | Plant response rating, Ryegrass, Italian (ryegrass, Italian [16]; [25]): 0 | Plant response rating, Ryegrass, Italian (ryegrass, Italian [16]; [26]): 0 | Plant response rating, Blackgrass (blackgrass [17]; [25]): 0 | Plant response rating, Blackgrass (blackgrass [17]; [26]): 0 | Plant response rating, Ragweed (ragweed [18]; [25]): 0 | Plant response rating, Ragweed (ragweed [18]; [26]): 0 | Plant response rating, Kochia (kochia [19]; [23]): 0 | Plant response rating, Kochia (kochia [19]; [24]): 0 | Plant response rating, Corn (corn [20]; [23]): 0 | Plant response rating, Corn (corn [20]; [24]): 0 | Plant response rating, Oat, Wild (oat, wild [21]; [25]): 0 | Plant response rating, Oat, Wild (oat, wild [21]; [26]): 0 | Plant response rating, Corn (corn [22]; [25]): 0 | Plant response rating, Corn (corn [22]; [26]): 0

Cc1ccc(-n2cncn2)cc1C(=O)N1C[C@H](C)Oc2c(C)cccc21 [Compound 57]
Plant response rating, Foxtail, Giant (foxtail, giant [1]; [23]): 100 | Plant response rating, Foxtail, Giant (foxtail, giant [1]; [24]): 100 | Plant response rating, Rice (rice): 0 | Plant response rating, Galium (galium; [25]): 80 | Plant response rating, Galium (galium; [26]): 100 | Plant response rating, Sedge, Umbrella (sedge, umbrella): 90 | Plant response rating, Soybean (soybean [2]; [25]): 100 | Plant response rating, Soybean (soybean [2]; [26]): 100 | Plant response rating, Blackgrass (blackgrass [3]; [23]): 60 | Plant response rating, Blackgrass (blackgrass [3]; [24]): 90 | Plant response rating, Pigweed, Palmer (pigweed, palmer [4]; [23]): 30 | Plant response rating, Pigweed, Palmer (pigweed, palmer [4]; [24]): 100 | Plant response rating, Barnyardgrass (barnyardgrass): 15 | Plant response rating, Horseweed (horseweed; [25]): 0 | Plant response rating, Horseweed (horseweed; [26]): 20 | Plant response rating, Ragweed (ragweed [5]; [23]): 0 | Plant response rating, Ragweed (ragweed [5]; [24]): 50 | Plant response rating, Kochia (kochia [6]; [25]): 10 | Plant response rating, Kochia (kochia [6]; [26]): 30 | Plant response rating, Foxtail, Giant (foxtail, giant [7]; [25]): 90 | Plant response rating, Foxtail, Giant (foxtail, giant [7]; [26]): 90 | Plant response rating, Wheat (wheat [8]; [25]): 70 | Plant response rating, Wheat (wheat [8]; [26]): 90 | Plant response rating, Ryegrass, Italian (ryegrass, Italian [9]; [23]): 80 | Plant response rating, Ryegrass, Italian (ryegrass, Italian [9]; [24]): 100 | Plant response rating, Ducksalad (ducksalad): 65 | Plant response rating, Soybean (soybean [10]; [23]): 100 | Plant response rating, Soybean (soybean [10]; [24]): 100 | Plant response rating, Goosegrass (goosegrass [11]; [25]): 40 | Plant response rating, Goosegrass (goosegrass [11]; [26]): 90 | Plant response rating, Goosegrass (goosegrass [12]; [23]): 90 | Plant response rating, Goosegrass (goosegrass [12]; [24]): 100 | Plant response rating, Wheat (wheat [13]; [23]): 20 | Plant response rating, Wheat (wheat [13]; [24]): 80 | Plant response rating, Pigweed, Palmer (pigweed, palmer [14]; [25]): 20 | Plant response rating, Pigweed, Palmer (pigweed, palmer [14]; [26]): 50 | Plant response rating, Oat, Wild (oat, wild [15]; [23]): 50 | Plant response rating, Oat, Wild (oat, wild [15]; [24]): 90 | Plant response rating, Ryegrass, Italian (ryegrass, Italian [16]; [25]): 70 | Plant response rating, Ryegrass, Italian (ryegrass, Italian [16]; [26]): 100 | Plant response rating, Blackgrass (blackgrass [17]; [25]): 50 | Plant response rating, Blackgrass (blackgrass [17]; [26]): 80 | Plant response rating, Ragweed (ragweed [18]; [25]): 30 | Plant response rating, Ragweed (ragweed [18]; [26]): 50 | Plant response rating, Kochia (kochia [19]; [23]): 40 | Plant response rating, Kochia (kochia [19]; [24]): 30 | Plant response rating, Corn (corn [20]; [23]): 0 | Plant response rating, Corn (corn [20]; [24]): 40 | Plant response rating, Oat, Wild (oat, wild [21]; [25]): 80 | Plant response rating, Oat, Wild (oat, wild [21]; [26]): 90 | Plant response rating, Corn (corn [22]; [25]): 70 | Plant response rating, Corn (corn [22]; [26]): 80
